Earlier results, collected in US20080069886A1, “Spironolactone nanoparticles, compositions and methods related thereto” (JAGOTEC AG, priority 2001, published 2008).

In the case of `CC(=O)S[C@@H]1CC2=CC(=O)CC[C@]2(C)[C@H]2CC[C@@]3(C)[C@@H](CC[C@@]34CCC(=O)O4)[C@H]12` [Spironolactone], the solubility in water is listed as 2.8 mg/100 ml.
